PubChem BioAssay (NCI)
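Protocol summary: plate cells (96-well), add compound at 5 concentrations, incubate 48 h, interpolate endpoints linearly. GI50 marks 50% less growth. TGI is the concentration that stops growth completely.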

Key:
Test in all cases: inhibition of tumour cell growth, NCI panel, 48 h
MDA-MB-435 = test system: MDA-MB-435
KM12 colon = test system: KM12 colon
A549 NSCLC = test system: A549 NSCLC
SF-268 CNS = test system: SF-268 CNS
HL-60(TB) leukemia = test system: HL-60(TB) leukemia
SN12C renal = test system: SN12C renal
A498 renal = test system: A498 renal
SNB-19 CNS = test system: SNB-19 CNS
RPMI-8226 leukemia = test system: RPMI-8226 leukemia
SK-MEL-28 melanoma = test system: SK-MEL-28 melanoma

SMILES | GI50 (MDA-MB-435) [µM] | TGI (MDA-MB-435) [µM] | GI50 (KM12 colon) [µM] | TGI (KM12 colon) [µM] | GI50 (A549 NSCLC) [µM] | TGI (A549 NSCLC) [µM] | GI50 (SF-268 CNS) [µM] | TGI (SF-268 CNS) [µM] | GI50 (HL-60(TB) leukemia) [µM] | TGI (HL-60(TB) leukemia) [µM] | GI50 (SN12C renal) [µM] | TGI (SN12C renal) [µM] | GI50 (A498 renal) [µM] | TGI (A498 renal) [µM] | GI50 (SNB-19 CNS) [µM] | TGI (SNB-19 CNS) [µM] | GI50 (RPMI-8226 leukemia) [µM] | TGI (RPMI-8226 leukemia) [µM] | GI50 (SK-MEL-28 melanoma) [µM] | TGI (SK-MEL-28 melanoma) [µM]
COc1cccc(/C=N\Nc2ccc([N+](=O)[O-])cn2)c1O | 5.23 | > 100 | 6.04 | 51.5 | 4.26 | 46.3 | 2.58 | 23.8 | 3.13 | 17.7 | 4 | 62 | 2.42 | 15.4 | 3.13 | 27.8 | 3.21 | 27.8 | 19.6 | > 100
CCCCCCCCCCCCCCCc1cc(O)ccc1N | > 100 | > 100 | 7.43 | > 100 | > 100 | > 100 | 4.33 | 23.9 | 0.142 | 0.532 | > 20.1 | > 100 | 21.7 | 75.3 | > 100 | > 100 | 0.18 | 18.8 | > 67.3 | > 100
CCCCC(=O)N/N=C/c1cc(I)cc(I)c1O | 5.54 | 23.9 | 3.74 | 53.8 | 3.63 | 22.4 | 2.15 | 21.6 | 2.49 | 7.27 | 3.77 | 26.1 | 13.8 | 44.2 | 3.43 | 35.6 | 3.95 | 30.1 | 2.85 | 17.3
O=[N+]([O-])c1ccccc1N=Nc1c(O)[nH]c2ccccc12 |  | > 100 |  | > 100 |  | > 100 |  | > 100 |  | > 100 |  | > 61.6 |  | > 61.6 |  | > 100 |  | > 100 |  | > 100
O=C(O)C1C2CC3C(OC(=O)C31)C2Br (stereo not given) |  | > 100 |  | > 100 |  | > 100 |  | > 100 |  | > 23.4 |  | > 100 |  | > 100 |  | > 100 |  | > 100 |  | > 100
ClCCN(CCCl)c1ccc(-n2cnc3c(Cl)ncnc32)cc1 | 2.04 | 4.12 | 6.16 | 19.5 | 12.5 | 29.7 | 1.81 | 3.73 | 2.5 | 6.58 | 3.17 | 10.2 | 11.9 | 24.5 | 5.4 | 17.4 | 9.69 | 59.1 | 1.94 | 3.64
COC(=O)c1ccccc1NC(=O)/C(=N\NC(C)(C)C)C(C#N)c1nc(-c2ccc([N+](=O)[O-])cc2)cs1 (stereo not given) |  | > 100 |  | > 100 |  | > 100 |  | > 100 |  | > 100 |  | > 100 |  | > 100 |  | > 100 |  | > 100 |  | > 100
